Experimental data as given in publication PMC11697113, “The Hsc70 system maintains the synaptic SNARE protein SNAP-25 in an assembly-competent state and delays its aggregation [drawing 1]” (The Journal of Biological Chemistry, 2024).

Legend:
Hsc70 [1] = biological target: T1, Hsc70 (Homo sapiens, UniProt P11142); test: Methyl-TROSY NMR of Ile-13CH3-labeled Hsc70 with peptides; type: binding; conditions: Ile-13CH3 Hsc70 40 μM, 25 °C, 600 MHz, pD 7.4
T1 construct: 6X His-tag (TEV-cleavable) (cleaved yes); made in house; host or cells: E. coli Rosetta (DE3)
Experimental: Figure 5 SNN and SNC peptides interact with the canonical substrate-binding site of Hsc70.A, ATPase activity of Hsc70 (2 μM) in the absence (gray) and presence of 200 μM SNNP (orange) and SNCP (green) peptides. Error bars represent the SDs from three independent experiments. B, binding of SNAP-25 (black), SNNP (orange), LoopP (blue), and SNCP (green) peptides to Hsc70 followed by competition for FITC-p5 peptide using fluorescence anisotropy. Increasing concentrations of the competitors were added to a complex of Hsc70 (5 μM) and FITC-p5 peptide (50 nM). Error bars represent SDs from three independent experiments. C, structure of the canonical substrate-binding site of human HspA1 (PDB 4po2) illustrating the location of Hsc70 residues Ile 403 and Ile 440 in red and green spheres, respectively (N.B., Hsc70 and HspA1 share […] sequence identity). The SBD is shown in gray, bound substrate in cyan sticks, and the side chain of the residue occupying the 0th position in the chaperone (“anchor residue”) in orange ball and sticks. For better visualization of the substrate-binding site, residues 512 to 613, 405 to 408, and 431 were removed in this illustration of the structure. D, the Ile region of the ^1H-^13 C HMQC spectra of Ile-^13CH3-labeled Hsc70 (40 μM) in the absence (black) and in the presence of unlabeled SNNP (orange) and SNCP (green) peptides (200 μM).
To directly observe binding of SNAP-25 peptides to Hsc70, we used methyl-TROSY NMR. We recorded the spectra of complexes between peptides containing the Hsc70 binding sites of SNAP-25 and Hsc70 selectively labeled (^1H,^13 C) at Ile δ1-methyl positions in a ^2H, ^12C background. We had previously found using the Escherichia coli Hsp70, DnaK, that the δ1-methyl chemical shifts of Ile 401 and 438, which contact the central residue of the bound peptide (anchor residue, Fig. 5C), change markedly depending on the identity of the bound anchor residue and the orientation of the peptide backbone with respect to DnaK ([38]). In Hsc70, the side chains of Ile 403 and 440 are similarly arranged with respect to the anchor residue of the bound peptide as Ile 401 and 438 are in DnaK (Fig. 5C) allowing us to use their δ1-methyl chemical shifts to assess directly how the chaperone binds to SNAP-25 peptides SNNP and SNCP. We confirmed the assignment of Ile 403 and Ile 440 chemical shifts by mutating these residues to Leu and collecting methyl-TROSY NMR spectra. The Hsp70 SBD site that binds the anchor residue (termed the 0th pocket) is most frequently occupied by Leu or Ile and less commonly by Val, Pro, or Met ([38], [39], [40], [41]). […]
NMR experiments were carried out at 25 °C on a 600 MHz Bruker Avance III spectrometer equipped with a CryoProbe. Data were processed with NMRPipe and analyzed using ccpNMR Analysis. […]

Hsc70 [2] = biological target: T1, Hsc70; test: ATPase activity of Hsc70 (malachite green); type: biochemical; conditions: Hsc70 2 μM, peptide 200 μM, 1 mM ATP, HMK buffer, 1 mM DTT, 37 °C, 1 h, malachite green 620 nm; SD, three independent experiments
Description: Hsp70s consist of an nucleotide-binding domain (NBD) and a substrate-binding domain (SBD). Hsc70 works using an allosteric mechanism whereby substrate binding at the SBD stimulates the ATP hydrolysis rate at the nucleotide-binding domain. The basal ATPase rate of Hsp70 is low, usually about 0.05 ± 0.009 mol Pi/mol protein, and increases when it is stimulated by binding of a peptide to the canonical site in the SBD. We measured the ability of SNAP-25 peptides SNNP and SNCP to stimulate the ATPase rate of Hsc70 (Fig. 5A). SNNP and SNCP binding cause a 1.5-fold increase of the Hsc70 ATPase rate over basal (observed rates upon addition of SNNP and SNCP were 0.089 ± 0.008 and 0.080 ± 0.005, respectively). In order to confirm that peptides are indeed binding at the canonical binding site of Hsc70, we used the V438F mutant that blocks the binding site ([37]). […] The addition of CSPαJ stimulates the ATPase activity of Hsc70 ∼4-fold with and without peptides.
Figure 5 SNN and SNC peptides interact with the canonical substrate-binding site of Hsc70.A, ATPase activity of Hsc70 (2 μM) in the absence (gray) and presence of 200 μM SNNP (orange) and SNCP (green) peptides. Error bars represent the SDs from three independent experiments. B, binding of SNAP-25 (black), SNNP (orange), LoopP (blue), and SNCP (green) peptides to Hsc70 followed by competition for FITC-p5 peptide using fluorescence anisotropy. Increasing concentrations of the competitors were added to a complex of Hsc70 (5 μM) and FITC-p5 peptide (50 nM). Error bars represent SDs from three independent experiments. […]
We performed ATPase assays to observe the activity of Hsc70 in the presence of SNAP25 peptides. […] Absorbance readings were taken at 620 nm using a BioTek plate reader. […]
(C) ATPase activity of Hsc70 (at 2 μM) in the absence (grey) and presence of 200 μM SNNP (orange) and L(Loop)-SNCP (green) peptides, and in the absence and presence of CSPa-J and CSPa-J/Apg2. The statistical significance was calculated using one-way ANOVA test with Sidak’s multiple comparison and the Hsc70 ATPase activity […]

T1 sequence (P11142 whole entry): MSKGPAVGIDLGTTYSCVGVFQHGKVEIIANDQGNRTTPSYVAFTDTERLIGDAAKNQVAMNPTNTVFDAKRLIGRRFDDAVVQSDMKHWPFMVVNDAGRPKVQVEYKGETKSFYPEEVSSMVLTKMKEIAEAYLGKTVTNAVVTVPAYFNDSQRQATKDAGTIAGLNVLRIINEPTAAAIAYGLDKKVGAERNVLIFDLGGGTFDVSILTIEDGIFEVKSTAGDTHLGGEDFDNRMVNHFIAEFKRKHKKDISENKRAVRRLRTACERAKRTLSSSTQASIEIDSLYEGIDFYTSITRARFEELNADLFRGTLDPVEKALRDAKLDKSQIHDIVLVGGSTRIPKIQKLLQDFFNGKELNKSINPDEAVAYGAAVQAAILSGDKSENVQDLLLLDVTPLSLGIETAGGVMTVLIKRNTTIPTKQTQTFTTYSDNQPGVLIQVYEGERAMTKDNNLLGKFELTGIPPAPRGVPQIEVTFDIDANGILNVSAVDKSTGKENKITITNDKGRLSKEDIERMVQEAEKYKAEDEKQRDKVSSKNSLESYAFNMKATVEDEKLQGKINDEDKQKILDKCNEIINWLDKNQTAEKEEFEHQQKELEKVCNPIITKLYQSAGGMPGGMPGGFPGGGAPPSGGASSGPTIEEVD

Sequence | Ile 403 and 440 δ1-methyl signals on complex formation (Hsc70 [1]) | Ile 440 chemical shift splitting (binding modes) (Hsc70 [1]) | ATPase rate of Hsc70 upon addition of peptide (Hsc70 [2]) | Ile 440 and 403 δ1-methyl chemical shift splitting (binding modes) (Hsc70 [1])
EREQMAISGGFIRR [SNCP, peptide … from the LOOP-SNC domain of SNAP-25] | indeed shift upon complex formation | split into two signals | 0.080 ± 0.005 | –
RRMLQLVEESK [SNNP, peptide … from the SNN domain of SNAP-25] | indeed shift upon complex formation | – | 0.089 ± 0.008 | split into two resonances each
